Test results from US8309590B2, “Triazol compounds for treating biofilm formation” (Novartis AG, priority 2007, dated 2012).

How the values were obtained:
P. aeruginosa = assay: planktonic growth in borosilicate glass tube model (OD 570 nm); assay type: cell-based, Pseudomonas aeruginosa
Procedure: Growth with or without Compound I, e.g. at concentrations achieved in peripheral blood, under aerobic and anaerobic conditions with no added iron, 10, 30 and 50 μM iron. […] The effect of bacterial growth is determined using a standard method that involves inoculation of aliquots, e.g. 500 μL, of around 10^6 bacteria in minimal media with succinate into borosilicate glass tubes, e.g. 12×75 mm, that are them incubated under aerobic and anaerobic conditions, e.g. at 37° C. Each experiment is undertaken in triplicate and each borosilicate tube is removed at regular intervals, e.g. 0, 4, 8, 12, 16, 20 and 24 hours and the optical density at 570 nm of the culture used as an indicator of the level of growth. Anaerobic culture conditions are generated using the Anaerogen™ (Oxoid) system. For anaerobic experiments, parallel cultures are set up so that cultures are not transiently exposed to oxygen, i.e. seven parallel cultures to allow sampling at the required times. Different concentrations of Compound I are assessed for their effect on aerobic and anaerobic (A) growth and (B) biofilm levels. Medium used is MMS supplemented with 0 or 10 μM FeCl3, as indicated (37° C., 24 h). Values shown represent the mean±SD of one representative experiment with 3 tubes per experiment. Different concentrations of Compound I are assessed for their effect on aerobic and anaerobic (A) growth and (B) biofilm levels. Medium used is MMS supplemented with 10 μM FeCl3 (37° C., 24 h). […] The effects of Compound I on planktonic growth and biofilm development re assessed in the short-term borosilicate glass tube biofilm model. In this model, a biofilm is grown on a glass surface, and this is subsequently stained and solubilized. The optical density (OD: 570 nm) of the solution corresponds with the level of biofilm development. Using this model, bacterial growth and biofilm levels are determined after incubation (24 h, 37° C.) in minimal medium supplemented with succinate (MMS)+10 μM FeCl3 (aerobic and anaerobic atmospheres).

P. aeruginosa biofilm = assay: short-term borosilicate glass tube biofilm model (OD 570 nm); assay type: cell-based, Pseudomonas aeruginosa
Procedure: For this purpose, two short-term biofilm models relevant for the early stages of biofilm formation are used: borosilicate tubes and cover-slip method. In both models, the biofilm growth is studied with or without Compound I under either aerobic or anaerobic conditions and with or without added iron, i.e. 0, 10, 30 and 50 μM iron. The anti-biofilm effects of Compound I are looked at according to the standard methods, i.e. optical density, confocal imaging software, […] program, to allow analysis of biofilm structure in a 3 dimensional perspective. The imaging system and use of BacLight LIVE/DEAD staining (Molecular Probes) in the cover-slip experiments allow to look at the effects on both bacterial microcolonies and biofilm structure. Different concentrations of Compound I are assessed for their effect on aerobic and anaerobic (A) growth and (B) biofilm levels. Medium used is MMS supplemented with 0 or 10 μM FeCl3, as indicated (37° C., 24 h). Values shown represent the mean±SD of one representative experiment with 3 tubes per experiment. Different concentrations of Compound I are assessed for their effect on aerobic and anaerobic (A) growth and (B) biofilm levels. Medium used is MMS supplemented with 10 μM FeCl3 (37° C., 24 h). […] The effect of Compound I (1339 μM) on biofilm development in different iron concentrations, without Compound I (black columns) and with Compound I, 1339 μM (grey columns). […] The effects of Compound I on planktonic growth and biofilm development re assessed in the short-term borosilicate glass tube biofilm model. In this model, a biofilm is grown on a glass surface, and this is subsequently stained and solubilized. The optical density (OD: 570 nm) of the solution corresponds with the level of biofilm development. Using this model, bacterial growth and biofilm levels are determined after incubation (24 h, 37° C.) in minimal medium supplemented with succinate (MMS)+10 μM FeCl3 (aerobic and anaerobic atmospheres). […] It is investigated whether Compound I is impairing anaerobic biofilm development by directly reducing the level of iron in the medium, or whether it is acting by an iron-independent mechanism. Compound I at a concentration of 1339 μM is tested to see if it continued to impair anaerobic biofilm development as the concentration of iron is increased in the culture medium.

[1] = system: P. aeruginosa strain PAO1; assay: MIC of tobramycin and colistin with and without Compound I; assay type: cell-based, Pseudomonas aeruginosa; details: Compound I 1339 μM, MMS + 10 μM FeCl3, aerobic and anaerobic atmospheres
Procedure: The minimal inhibitory concentrations (MICs) of the aminoglycosides gentamycin and tobramycin are determined under aerobic and anaerobic conditions in the presence of no added iron or 30 μM iron, with or without Compound I, e.g. and/or with varying concentrations of Compound I). MICs are determined in MMS+10 μM FeCl3 supplemented with Compound I (1339 μM) (solid line) and without Compound I (dashed line). Values shown represent the mean±SD of a representative experiment with each condition tested in duplicate. The […] inhibitory concentrations (MICS) of two antibiotics commonly used antibiotics to treat CF individuals, tobramycin and colistin, are tested against P. aeruginosa. This is done in MMS+10 μM FeCl3 with and without Compound I (1339 μM) under aerobic and anaerobic atmospheres (FIG. 4).

[2] = system: phospholipase C production by P. aeruginosa; assay: virulence factor production: phospholipase C; assay type: cell-based, Pseudomonas aeruginosa; details: Compound I 1339 μM, MMS + 10 μM FeCl3, anaerobic, 24 h
[3] = system: exotoxin A (ETA) production by P. aeruginosa; assay: virulence factor production: exotoxin A; assay type: cell-based, Pseudomonas aeruginosa; details: Compound I 1339 μM, MMS + 10 μM FeCl3, anaerobic, 24 h
solubility in MMS medium = assay type: physicochemical; details: MMS medium (pH 7.0)
[4] = Compound I 0-100 μM, aerobic, MMS + 10 μM FeCl3, 24 h, 37° C.
[5] = Compound I 0-100 μM, anaerobic, MMS + 10 μM FeCl3, 24 h, 37° C.
[6] = higher concentration of Compound I (up to 6695 μM, via PEG 400), aerobic
[7] = higher concentration of Compound I (up to 6695 μM, via PEG 400), anaerobic, P<0.05

O=C(O)c1ccc(-n2nc(-c3ccccc3O)nc2-c2ccccc2O)cc1 [Compound I, 4-[3,5-Bis-(2-hydroxyphenyl)-[1,2,4]-triazol-1-yl]benzoic acid]
effect on aerobic growth (P. aeruginosa; [4]): does not impair | effect on anaerobic growth (P. aeruginosa; [5]): does not impair | effect on growth, higher concentration, aerobic (P. aeruginosa; [6]): not under aerobic conditions | effect on growth, higher concentration, anaerobic (P. aeruginosa; [7]): significantly impair | effect on aerobic biofilm development (P. aeruginosa biofilm; [4]): does not impair | effect on anaerobic biofilm development (P. aeruginosa biofilm; [5]): does not impair | impairment of anaerobic biofilm development as iron concentration is increased (P. aeruginosa biofilm; Compound I 1339 μM, anaerobic, increasing iron levels in culture medium): becomes less effective | effect on biofilm levels, higher concentration, aerobic (P. aeruginosa biofilm; [6]): not under aerobic conditions | effect on biofilm levels, higher concentration, anaerobic (P. aeruginosa biofilm; [7]): significantly impair | effect on MIC of colistin [1]: does not alter the MIC | effect on MIC of tobramycin [1]: does not alter the MIC | effect on iron-induced increase of phospholipase C production [2]: increase is negated | effect on iron-induced increase of exotoxin A (ETA) production [3]: increase is negated | solubility in MMS medium (solubility in MMS medium): low solubility
